This note sets out measurements from DBAASP.

The structures appear in SMILES notation. Values after ≈ are worked out from the molar mass of the structure shown. Values joined by “and” are separate entries in the source; they are usually repeats but may differ in a detail not shown here. Equal entries are not always repeated.

Some test systems named below: Vibrio vulnificus 204; Helicobacter pylori; Vibrio alginolyticus; Acinetobacter baumannii.
Common to all, as to assay: ≥ marks a high value that may be exact or a test limit, other limits are often not marked, values filed in µg/mL are converted to µM
For assay [1], the system named is Helicobacter pylori ATCC 43629.
Assay [2] concerns Helicobacter pylori ATCC 43504.
For assay [3], the system named is Helicobacter pylori ATCC 700392.
In assay [4] the test system is Streptococcus agalactiae BCRC 10787.
For assay [5], the system named is Aeromonas hydrophila BCRC 13018.
The subject of assay [6] is Pseudomonas aeruginosa ATCC 19660.
Assay [7] relates to Streptococcus agalactiae 819.
The subject of assay [8] is Enterococcus faecalis BCRC 10066.
Assay [9] deals with Staphylococcus aureus ATCC 6538.
In assay [10] the test system is Proteus vulgaris NCTC 4635.
Assay [11] concerns Escherichia coli ATCC 8739.
Assay [12] has as its system Bacillus subtilis ATCC 9372.
For assay [13], the system named is Pseudomonas aeruginosa ATCC 9027.
For assay [14], the system named is Acinetobacter baumannii NM75.
Assay [15] has as its system Candida albicans ATCC 90028.
In assay [16] the test system is Escherichia coli ATCC 25726.
The subject of assay [17] is Acinetobacter baumannii NM8.
For assay [18], the system named is Staphylococcus aureus ATCC 25923.
In assay [19] the test system is Pseudomonas aeruginosa ATCC 27853.
Assay [20] relates to Aggregatibacter actinomycetemcomitans ATCC 29522.
Assay [21] relates to Staphylococcus aureus ATCC 33591.
Assay [22] concerns Klebsiella pneumoniae KK3 9904.
Assay [23] has as its system Batrachochytrium dendrobatidis.
Assay [24] has as its system Enterobacter cloacae NHTCC 53001.
For assay [25], the system named is Klebsiella pneumoniae ATCC 700603.
Assay [26] concerns Staphylococcus aureus ATCC 29213.
Assay [27] has as its system Proteus mirabilis ATCC 25933.
Assay [28] relates to Staphylococcus aureus ATCC 700699.
Assay [29] relates to Stenotrophomonas maltophilia.
Assay [30] relates to Staphylococcus epidermidis RP62A.
The test system of assay [31] is Staphylococcus epidermidis RP62A/1.

Turning to `CC(C)C[C@H](NC(=O)[C@@H](NC(=O)[C@H](CO)NC(=O)[C@H](CC(=O)O)NC(=O)[C@H](Cc1c[nH]c2ccccc12)NC(=O)[C@H](CC(=O)O)NC(=O)[C@@H](N)Cc1ccccc1)C(C)C)C(=O)N[C@@H](CCCCN)C(=O)NCC(=O)N[C@H](C(=O)N[C@@H](CCC(=O)O)C(=O)NCC(=O)N[C@@H](Cc1ccccc1)C(=O)N[C@H](C(=O)N[C@@H](CCCN=C(N)N)C(=O)NCC(=O)N[C@@H](Cc1ccc(O)cc1)C(=O)N[C@@H](Cc1ccccc1)C(N)=O)C(C)C)C(C)C` [FDWDSVLKGVEGFVRGYF], the MIC in [1] was found to be 5.66 µM (≈ 12 µg/mL); in assay [2], 5.66 µM (≈ 12 µg/mL); in the assay with Vibrio vulnificus 204, 11.1 µM (≈ 23.6 µg/mL); in assay [3], 5.66 µM (≈ 12 µg/mL); against Helicobacter pylori, 5.66 µM (≈ 12 µg/mL); in assay [4], 11.1 µM (≈ 23.6 µg/mL). Besides, the MIC (against Vibrio alginolyticus; in assay [5]; in assay [6]; in assay [7]; in assay [8]) was 11.1 µM (≈ 23.6 µg/mL) each time.
`CC[C@H](C)[C@H](NC(=O)[C@@H](NC(=O)[C@@H](NC(=O)[C@H](CC(=O)O)NC(=O)[C@H](Cc1ccccc1)NC(=O)[C@H](CC(C)C)NC(=O)CN)C(C)C)C(C)C)C(=O)NCC(=O)NCC(=O)N[C@@H](CC(C)C)C(=O)O` [GLFDVVIGGL]: the MIC is more than 1040 µM in assay [9]; not below 1040 µM in [10]; not below 1040 µM in assay [11]; not below 1040 µM in [12]; more than 1040 µM in [13].
Turning to `CC[C@H](C)[C@H](NC(=O)CNC(=O)[C@H](CCCCN)NC(=O)[C@@H](NC(=O)[C@H](CC(C)C)NC(=O)[C@H](CO)NC(=O)CNC(=O)[C@H](CC(C)C)NC(=O)CNC(=O)[C@H](C)NC(=O)[C@H](CCCCN)NC(=O)[C@H](Cc1ccccc1)NC(=O)[C@@H](NC(=O)[C@H](CCCCN)NC(=O)[C@H](CCCCN)NC(=O)[C@H](CC(C)C)NC(=O)CN)[C@@H](C)CC)C(C)C)C(=O)N[C@@H](CCCCN)C(=O)N[C@@H](C)C(=O)N[C@@H](Cc1cnc[nH]1)C(=O)N[C@H](C(=O)N[C@@H](C)C(=O)N[C@@H](CO)C(N)=O)C(C)C` [GLKKIFKAGLGSLVKGIKAHVAS], the MIC in assay [14] was 2.5 µM (≈ 5.8 µg/mL); in [15], 20 µM (≈ 46.4 µg/mL); in assay [16], 10 µM (≈ 23.2 µg/mL); in [17], 5 µM (≈ 11.6 µg/mL); in assay [18], more than 250 µM.
As to `CC[C@H](C)[C@H](NC(=O)[C@H](CC(=O)O)NC(=O)[C@H](CCCCN)NC(=O)[C@H](C)NC(=O)[C@H](C)NC(=O)CNC(=O)[C@H](CCCCN)NC(=O)[C@H](CC(C)C)NC(=O)[C@@H](NC(=O)[C@H](CC(=O)O)NC(=O)[C@@H](NC(=O)[C@@H](NC(=O)CN)C(C)C)C(C)C)[C@@H](C)CC)C(=O)N[C@@H](C)C(=O)NCC(=O)N[C@@H](Cc1cnc[nH]1)C(=O)N[C@@H](CC(C)C)C(=O)N[C@@H](C)C(=O)N[C@@H](CO)C(=O)N[C@@H](CCCCN)C(=O)N[C@H](C(=O)N[C@@H](CCSC)C(=O)N[C@@H](CC(N)=O)C(=O)N[C@@H](CCCCN)C(=O)N[C@@H](CC(C)C)C(N)=O)C(C)C` [GVVDILKGAAKDIAGHLASKVMNKL], the MIC in assay [19] is 80 µM and 100 µM; in [20], 24.8 µM (≈ 63.3 µg/mL); in assay [21], not below 100 µM; in [22] it was not below 80 µM; in [18], 110 µM (≈ 280 µg/mL); in assay [23], not below 100 µM. The MIC in [24] was 20 µM (≈ 51 µg/mL); in [25], 100 µM (≈ 255 µg/mL); in assay [26] it was more than 100 µM; in assay [27], not below 160 µM; in assay [28], not below 100 µM.
As to `CC[C@H](C)[C@H](N)C(=O)N[C@@H](CCCCN)C(=O)N[C@@H](CC(C)C)C(=O)N[C@@H](CO)C(=O)N1CCC[C@H]1C(=O)N[C@@H](CCCCN)C(=O)N[C@H](C(=O)N[C@@H](CCCCN)C(=O)N[C@@H](CC(=O)O)C(=O)N[C@@H](CC(N)=O)C(=O)N[C@@H](CC(C)C)C(=O)N[C@@H](CCCCN)C(=O)N[C@@H](CCCCN)C(=O)N[C@H](C(=O)N[C@@H](CC(C)C)C(=O)N[C@@H](CCCCN)C(=O)NCC(=O)N[C@@H](C)C(=O)N[C@H](C(=O)N[C@@H](CCCCN)C(=O)NCC(=O)N[C@@H](C)C(=O)N[C@H](C(=O)N[C@@H](C)C(=O)N[C@H](C(=O)N[C@@H](C)C(=O)N[C@@H](CCCCN)C(=O)N[C@@H](CCSC)C(=O)N[C@H](C(N)=O)C(C)C)C(C)C)[C@@H](C)CC)[C@@H](C)CC)C(C)C)[C@@H](C)O` [IKLSPKTKDNLKKVLKGAIKGAIAVAKMV], the MIC in assay [29] is 1.6 µM (≈ 4.9 µg/mL); in [19], 12.5 µM (≈ 38.3 µg/mL); in [15], not below 100 µM; in [16] it was 6.25 µM (≈ 19.1 µg/mL); in the assay with Acinetobacter baumannii, 6.25 µM (≈ 19.1 µg/mL); in [18], 1.6 µM (≈ 4.9 µg/mL). Moreover, the MIC in assay [30] was 0.8 µM (≈ 2.45 µg/mL); in assay [31], 0.8 µM (≈ 2.45 µg/mL); in [25] it was 6.25 µM (≈ 19.1 µg/mL); in assay [26], 3.1 µM (≈ 9.49 µg/mL); in assay [27] it was not below 100 µM.
